# Measured values reported in patent US8952024B2, “Herbicidal pyrimidone derivatives” (E I du Pont de Nemours and Company, priority 2009, dated 2015).
# How the values were obtained:
# Assay in all cases: Test B pre-/postemergence plant response
# Assay type in all cases: in vivo
# [1] = tested on: pigweed (Amaranthus retroflexus)
# Summary of the method: (§1)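 Visual ratings on a 0–100 scale (100 = complete control) were made versus untreated controls 13–15 days after treatment in a greenhouse. Compounds in surfactant-containing non-phytotoxic solvent were applied preemergence to seeds in loam–sand blend or postemergence to 1- to 4-leaf plants (2–18 cm).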
# [2] = tested on: ragweed (common ragweed, Ambrosia elatior)
# Summary of the method: as §1
# [3] = tested on: johnsongrass (Sorghum halepense)
# Summary of the method: as §1
# wild oat (Avena fatua) = tested on: wild oat (Avena fatua)
# Summary of the method: as §1
# [4] = tested on: blackgrass (Alopecurus myosuroides)
# Summary of the method: as §1
# [5] = tested on: downy bromegrass (Bromus tectorum)
# Summary of the method: as §1
# [6] = tested on: velvetleaf (Abutilon theophrasti)
# Summary of the method: as §1
# [7] = tested on: lambsquarters (Chenopodium album)
# Summary of the method: as §1
# [8] = tested on: goosegrass (Eleusine indica)
# Summary of the method: as §1
# [9] = tested on: yellow nutsedge (Cyperus esculentus)
# Summary of the method: as §1
# [10] = tested on: woolly cupgrass (Eriochloa villosa)
# Summary of the method: as §1
# kochia (Kochia scoparia) = tested on: kochia (Kochia scoparia)
# Summary of the method: as §1
# [11] = tested on: Italian ryegrass (Lolium multiflorum)
# Summary of the method: as §1
# soybean (Glycine max) = tested on: soybean (Glycine max)
# Summary of the method: as §1
# [12] = tested on: wheat (Triticum aestivum)
# Summary of the method: as §1
# corn (Zea mays) = tested on: corn (Zea mays)
# Summary of the method: as §1
# [13] = tested on: large crabgrass (Digitaria sanguinalis)
# Summary of the method: as §1
# [14] = tested on: Surinam grass (Brachiaria decumbens)
# Summary of the method: as §1
# [15] = 31 g ai/ha, postemergence, scale 0 to 100, 0 is no effect, 100 is complete control
# [16] = 62 g ai/ha, postemergence, 0 is no effect, 100 is complete control, 13 to 15 days
# [17] = Postemergence, 125 g ai/ha, visual rating after 13 to 15 days, scale 0 (no effect) to 100 (complete control)
# [18] = Postemergence, 250 g ai/ha, scale 0 to 100 (0 no effect, 100 complete control)
# [19] = Preemergence, 31 g ai/ha, scale 0 to 100 (0 no effect, 100 complete control)
# [20] = Preemergence, 62 g ai/ha, scale 0 to 100, 0 no effect, 100 complete control
# [21] = Preemergence, 125 g ai/ha, scale 0 to 100, 0 no effect, 100 complete control
# [22] = 250 g ai/ha, Preemergence, 0 to 100 scale
smiles,measurement,setting,value
CC(C)Cc1ncc(C(=O)C2=C(O)CCCC2=O)c(=O)n1-c1ccccc1 [Compound 68],"Plant response rating, Pigweed",[1]; [15],85
same,Pigweed plant response rating (0 to 100 scale),[1]; [16],95
same,"Plant response rating, Pigweed",[1]; [17],100
same,"Plant response rating, Pigweed",[1]; [18],100
same,"Plant response rating, Pigweed",[1]; [19],95
same,"Plant response rating, Pigweed",[1]; [20],98
same,"Plant response rating, Pigweed",[1]; [21],100
same,"Plant response rating, Ragweed",[2]; [15],75
same,Ragweed plant response rating (0 to 100 scale),[2]; [16],80
same,"Plant response rating, Ragweed",[2]; [17],80
same,"Plant response rating, Ragweed",[2]; [18],95
same,"Plant response rating, Ragweed",[2]; [19],10
same,"Plant response rating, Ragweed",[2]; [20],75
same,"Plant response rating, Ragweed",[2]; [21],80
same,"Plant response rating, Johnsongrass",[3]; [15],10
same,Johnsongrass plant response rating (0 to 100 scale),[3]; [16],10
same,"Plant response rating, Johnsongrass",[3]; [22],95
same,"Plant response rating, Johnsongrass",[3]; [17],75
same,"Plant response rating, Johnsongrass",[3]; [18],100
same,"Plant response rating, Johnsongrass",[3]; [19],0
same,"Plant response rating, Johnsongrass",[3]; [20],5
same,"Plant response rating, Johnsongrass",[3]; [21],75
same,"Plant response rating, Oat, Wild",wild oat (Avena fatua); [15],5
same,"Oat, Wild plant response rating (0 to 100 scale)",wild oat (Avena fatua); [16],20
same,"Plant response rating, Oat, Wild",wild oat (Avena fatua); [17],50
same,"Plant response rating, Oat, Wild",wild oat (Avena fatua); [18],70
same,"Plant response rating, Oat, Wild",wild oat (Avena fatua); [19],0
same,"Plant response rating, Oat, Wild",wild oat (Avena fatua); [20],0
same,"Plant response rating, Oat, Wild",wild oat (Avena fatua); [21],0
same,"Plant response rating, Blackgrass",[4]; [15],0
same,Blackgrass plant response rating (0 to 100 scale),[4]; [16],0
same,"Plant response rating, Blackgrass",[4]; [22],5
same,"Plant response rating, Blackgrass",[4]; [17],0
same,"Plant response rating, Blackgrass",[4]; [18],20
same,"Plant response rating, Blackgrass",[4]; [19],0
same,"Plant response rating, Blackgrass",[4]; [20],0
same,"Plant response rating, Blackgrass",[4]; [21],0
same,"Plant response rating, Bromegrass, Downy",[5]; [15],5
same,"Bromegrass, Downy plant response rating (0 to 100 scale)",[5]; [16],5
same,"Plant response rating, Bromegrass, Downy",[5]; [22],5
same,"Plant response rating, Bromegrass, Downy",[5]; [17],25
same,"Plant response rating, Bromegrass, Downy",[5]; [18],40
same,"Plant response rating, Bromegrass, Downy",[5]; [19],0
same,"Plant response rating, Bromegrass, Downy",[5]; [20],0
same,"Plant response rating, Bromegrass, Downy",[5]; [21],0
same,"Plant response rating, Velvetleaf",[6]; [15],95
same,Velvetleaf plant response rating (0 to 100 scale),[6]; [16],100
same,"Plant response rating, Velvetleaf",[6]; [17],100
same,"Plant response rating, Velvetleaf",[6]; [18],100
same,"Plant response rating, Velvetleaf",[6]; [19],95
same,"Plant response rating, Velvetleaf",[6]; [20],100
same,"Plant response rating, Velvetleaf",[6]; [21],100
same,"Plant response rating, Lambsquarters",[7]; [15],95
same,Lambsquarters plant response rating (0 to 100 scale),[7]; [16],98
same,"Plant response rating, Lambsquarters",[7]; [22],100
same,"Plant response rating, Lambsquarters",[7]; [17],100
same,"Plant response rating, Lambsquarters",[7]; [18],100
same,"Plant response rating, Lambsquarters",[7]; [19],98
same,"Plant response rating, Lambsquarters",[7]; [20],98
same,"Plant response rating, Lambsquarters",[7]; [21],98
same,"Plant response rating, Goosegrass",[8]; [15],65
same,Goosegrass plant response rating (0 to 100 scale),[8]; [16],70
same,"Plant response rating, Goosegrass",[8]; [22],98
same,"Plant response rating, Goosegrass",[8]; [17],85
same,"Plant response rating, Goosegrass",[8]; [18],95
same,"Plant response rating, Goosegrass",[8]; [19],80
same,"Plant response rating, Goosegrass",[8]; [20],95
same,"Plant response rating, Goosegrass",[8]; [21],98
same,"Plant response rating, Nutsedge, Yellow",[9]; [15],0
same,"Nutsedge, Yellow plant response rating (0 to 100 scale)",[9]; [16],10
same,"Plant response rating, Nutsedge, Yellow",[9]; [17],70
same,"Plant response rating, Nutsedge, Yellow",[9]; [18],80
same,"Plant response rating, Nutsedge, Yellow",[9]; [19],0
same,"Plant response rating, Nutsedge, Yellow",[9]; [20],70
same,"Plant response rating, Nutsedge, Yellow",[9]; [21],85
same,"Plant response rating, Cupgrass, Woolly",[10]; [15],10
same,"Cupgrass, Woolly plant response rating (0 to 100 scale)",[10]; [16],10
same,"Plant response rating, Cupgrass, Woolly",[10]; [22],85
same,"Plant response rating, Cupgrass, Woolly",[10]; [17],55
same,"Plant response rating, Cupgrass, Woolly",[10]; [18],75
same,"Plant response rating, Cupgrass, Woolly",[10]; [19],5
same,"Plant response rating, Cupgrass, Woolly",[10]; [20],20
same,"Plant response rating, Cupgrass, Woolly",[10]; [21],55
same,"Plant response rating, Kochia",kochia (Kochia scoparia); [15],70
same,Kochia plant response rating (0 to 100 scale),kochia (Kochia scoparia); [16],90
same,"Plant response rating, Kochia",kochia (Kochia scoparia); [22],95
same,"Plant response rating, Kochia",kochia (Kochia scoparia); [17],95
same,"Plant response rating, Kochia",kochia (Kochia scoparia); [18],98
same,"Plant response rating, Kochia",kochia (Kochia scoparia); [19],80
same,"Plant response rating, Kochia",kochia (Kochia scoparia); [20],80
same,"Plant response rating, Kochia",kochia (Kochia scoparia); [21],95
same,"Plant response rating, Ryegrass, Italian",[11]; [15],5
same,"Ryegrass, Italian plant response rating (0 to 100 scale)",[11]; [16],5
same,"Plant response rating, Ryegrass, Italian",[11]; [17],15
same,"Plant response rating, Ryegrass, Italian",[11]; [18],50
same,"Plant response rating, Ryegrass, Italian",[11]; [19],0
same,"Plant response rating, Ryegrass, Italian",[11]; [20],0
same,"Plant response rating, Ryegrass, Italian",[11]; [21],0
same,"Plant response rating, Soybean",soybean (Glycine max); [15],80
same,Soybean plant response rating (0 to 100 scale),soybean (Glycine max); [16],95
same,"Plant response rating, Soybean",soybean (Glycine max); [17],98
same,"Plant response rating, Soybean",soybean (Glycine max); [18],98
same,"Plant response rating, Wheat",[12]; [15],5
same,Wheat plant response rating (0 to 100 scale),[12]; [16],5
same,"Plant response rating, Wheat",[12]; [17],5
same,"Plant response rating, Wheat",[12]; [18],10
same,"Plant response rating, Wheat",[12]; [19],0
same,"Plant response rating, Wheat",[12]; [20],0
same,"Plant response rating, Wheat",[12]; [21],0
same,"Plant response rating, Corn",corn (Zea mays); [15],0
same,Corn plant response rating (0 to 100 scale),corn (Zea mays); [16],15
same,"Plant response rating, Corn",corn (Zea mays); [22],0
same,"Plant response rating, Corn",corn (Zea mays); [17],80
same,"Plant response rating, Corn",corn (Zea mays); [18],80
same,"Plant response rating, Corn",corn (Zea mays); [19],0
same,"Plant response rating, Corn",corn (Zea mays); [20],0
same,"Plant response rating, Corn",corn (Zea mays); [21],0
same,"Plant response rating, Crabgrass, Large",[13]; [15],75
same,"Crabgrass, Large plant response rating (0 to 100 scale)",[13]; [16],90
same,"Plant response rating, Crabgrass, Large",[13]; [22],100
same,"Plant response rating, Crabgrass, Large",[13]; [17],90
same,"Plant response rating, Crabgrass, Large",[13]; [18],98
same,"Plant response rating, Crabgrass, Large",[13]; [19],65
same,"Plant response rating, Crabgrass, Large",[13]; [20],95
same,"Plant response rating, Crabgrass, Large",[13]; [21],98
same,"Plant response rating, Surinam Grass",[14]; [15],25
same,Surinam Grass plant response rating (0 to 100 scale),[14]; [16],55
same,"Plant response rating, Surinam Grass",[14]; [17],70
same,"Plant response rating, Surinam Grass",[14]; [18],90
same,"Plant response rating, Surinam Grass",[14]; [19],45
same,"Plant response rating, Surinam Grass",[14]; [20],50
same,"Plant response rating, Surinam Grass",[14]; [21],55
